The values that follow are results of earlier work, collected in patent US20050096390A1 (priority 2003, published 2005).

The structures appear in SMILES notation.

For series [1] the following is noted: pH of 7.0.
The conditions of series [2]: 160 mg fenofibrate tablets, typical average blood plasma sample.

Regarding `CC[C@H](C)C(=O)O[C@H]1C[C@H](O)C=C2C=C[C@H](C)[C@H](CC[C@@H](O)C[C@@H](O)CC(=O)O)[C@H]21` [Pravastatin], the solubility in water entry is given as “sparingly soluble”.
On to `CC[C@H](C)C(=O)O[C@H]1C[C@H](O)C=C2C=C[C@H](C)[C@H](CC[C@@H](O)C[C@@H](O)CC(=O)[O-])[C@H]21.[Na+]` (relative stereo) [Pravastatin sodium, 1-naphthalene-heptanoic acid, 1,2,6,7,8,8a-hexahydro-(beta),(beta),6-trihydroxy-2-methyl-8-(2-methyl-1-oxobutoxy)-, monosodium salt, [1S-[1(alpha)((beta)S*,(beta)S*),2(alpha),6(alpha), 8(beta)(R*),8a(alpha)]]-], for which the solubility in water is given as > 300 mg/mL. For the same molecule, the “partition coefficient (octanol/water)” value in series [1] is recorded as 0.59. Moreover, the “solubility in acetone, acetonitrile, chloroform, and ether” value (acetone, acetonitrile, chloroform, ether) was “practically insoluble”. For the same molecule, the solubility in isopropanol result (isopropanol) is “slightly soluble”. For the same molecule, for the setting “methanol”, the solubility in methanol is > 300 mg/mL.
In the case of `CC(C)OC(=O)C(C)(C)Oc1ccc(C(=O)c2ccc(Cl)cc2)cc1` [Fenofibrate], the AUC0-24 of fenofibrate result in series [2] is listed as “about 118,300 h·ng/mL”.
